Results from patent US9447100B2, “Substituted pyrazolo[1,5-A] pyrimidines as calcium receptor modulating agents” (Takeda Pharmaceutical Company Limited, priority 2002, dated 2016).
Counter-ions that a name gives are not always drawn.

melting point	SMILES
128 to 129 °C	CCC(CC)(NC(=O)c1c(C)nn2c1N[C@@H](c1ccccc1)CC2(C)C)c1ccc(Cl)cc1 [Example 1042, (5R)-N-(1-(4-chlorophenyl)-1-ethylpropyl)-2,7,7-trimethyl-5-phenyl-4,5,6,7-tetrahydropyrazolo[1,5-a]pyrimidine-3-carboxamide]
178 to 179 °C	CCOC(=O)COc1ccc(C(CC)(CC)NC(=O)c2cnn3c2NC(c2ccccc2)CC3(C)C)cc1 (stereo not shown) [Example 730, ethyl (4-(1-(((7,7-dimethyl-5-phenyl-4,5,6,7-tetrahydropyrazolo[1,5-a]pyrimidin-3-yl)carbonyl)amino)-1-ethylpropyl)phenoxy)acetate]
200.9 to 201 °C	CCC(CC)(NC(=O)c1cnn2c1NC(c1ccccc1F)CC2(C)C)c1ccc(C(F)(F)F)cc1 (stereo not shown) [Example 675, N-(1-ethyl-1-(4-(trifluoromethyl)phenyl)propyl)-5-(2-fluorophenyl)-7,7-dimethyl-4,5,6,7-tetrahydropyrazolo[1,5-a]pyrimidine-3-carboxamide]
196 to 197 °C	COc1ccc(C2CC(C)(C)n3ncc(C(=O)O)c3N2)cc1 (stereo not shown) [Example 942, 5-(4-methoxyphenyl)-7,7-dimethyl-4,5,6,7-tetrahydropyrazolo[1,5-a]pyrimidine-3-carboxylic acid]
180 to 181 °C	CCC(CC)(NC(=O)c1cnn2c1NC(c1ccccc1)CC2(C)C)c1cccc(F)c1 (stereo not shown) [Example 615, N-(1-ethyl-1-(3-fluorophenyl)propyl)-7,7-dimethyl-5-phenyl-4,5,6,7-tetrahydropyrazolo[1,5-a]pyrimidine-3-carboxamide]
88 to 89 °C	CCC(C)(CC)NC(=O)c1cnn2c1NC(c1ccccc1)CC2(C)C (stereo not shown) [Example 618, N-(1-ethyl-1-methylpropyl)-7,7-dimethyl-5-phenyl-4,5,6,7-tetrahydropyrazolo[1,5-a]pyrimidine-3-carboxamide]
146 to 148 °C	CCC(CC)(NC(=O)c1c(C)nn2c1NC(c1ccccc1)CC2(C)C)c1ccc(Cl)cc1 (stereo not shown) [Example 696, N-(1-(4-chlorophenyl)-1-ethylpropyl)-2,7,7-trimethyl-5-phenyl-4,5,6,7-tetrahydropyrazolo[1,5-a]pyrimidine-3-carboxamide]
201 to 202 °C	C#CC1(NC(=O)c2cnn3c2NC(c2ccccc2)CC3(C)C)CCCCC1 (stereo not shown) [Example 587, N-(1-ethynylcyclohexyl)-7,7-dimethyl-5-phenyl-4,5,6,7-tetrahydropyrazolo[1,5-a]pyrimidine-3-carboxamide]
176 to 177 °C	CCCC(CC)(CC)NC(=O)c1c(C)nn2c1NC(c1ccccc1)CC2(C)C (stereo not shown) (as salt: HCl) [Example 838, N-(1,1-diethylbutyl)-2,7,7-trimethyl-5-phenyl-4,5,6,7-tetrahydropyrazolo[1,5-a]pyrimidine-3-carboxamide]
170 to 171 °C	CC1(NC(=O)c2cnn3c2NC(c2ccccc2)CC3(C)C)CCCCC1 (stereo not shown) [Example 586, 7,7-dimethyl-N-(1-methylcyclohexyl)-5-phenyl-4,5,6,7-tetrahydropyrazolo[1,5-a]pyrimidine-3-carboxamide]
205 to 206 °C	CCC(CC)(NC(=O)c1cnn2c1NC(c1ccccc1)CC2(C)C)c1ccc(C(=O)OC(C)C)cc1 (stereo not shown) [Example 733, isopropyl 4-(1-(((7,7-dimethyl-5-phenyl-4,5,6,7-tetrahydropyrazolo[1,5-a]pyrimidin-3-yl)carbonyl)amino)-1-ethylpropyl)benzoate]
146 °C	CCC(CC)(NC(=O)c1c(C)nn2c1NC(c1cccc(OC)c1)CC2(C)C)c1ccc(C)cc1 (stereo not shown) (as salt: HCl) [Example 966, N-(1-ethyl-1-(4-methylphenyl)propyl)-5-(3-methoxyphenyl)-2,7,7-trimethyl-4,5,6,7-tetrahydropyrazolo[1,5-a]pyrimidine-3-carboxamide]
235 to 236 °C	CC1(C)CC(c2ccccc2)Nc2c(C(=O)NC34CC5CC(CC(C5)C3)C4)cnn21 (stereo not shown) [Example 374, N-(1-adamantyl)-7,7-dimethyl-5-phenyl-4,5,6,7-tetrahydropyrazolo[1,5-a]pyrimidine-3-carboxamide]
141 to 142 °C	CCC(CC)(NC(=O)c1c(C)nn2c1N[C@@H](c1ccccc1)CC2(C)C)c1ccc(N(C)C)cc1 (as salt: HCl) [Example 1071, (5R)-N-(1-(4-(dimethylamino)phenyl)-1-ethylpropyl)-2,7,7-trimethyl-5-phenyl-4,5,6,7-tetrahydropyrazolo[1,5-a]pyrimidine-3-carboxamide]
193 to 194 °C	Cc1ccc(C(C)(C)NC(=O)c2c(C)nn3c2NC(c2ccccc2)CC3(C)C)cc1 (stereo not shown) (as salt: HCl) [Example 794, 2,7,7-trimethyl-N-(1-methyl-1-(4-methylphenyl)ethyl)-5-phenyl-4,5,6,7-tetrahydropyrazolo[1,5-a]pyrimidine-3-carboxamide]
178 to 179 °C	CCC(CC)(NC(=O)c1cnn2c1NC(c1ccccc1)CC2(C)C)c1ccc(CO)cc1 (stereo not shown) [Example 739, N-(1-ethyl-1-(4-(hydroxymethyl)phenyl)propyl)-7,7-dimethyl-5-phenyl-4,5,6,7-tetrahydropyrazolo[1,5-a]pyrimidine-3-carboxamide]

melting point	SMILES
177 to 178 °C	CCCc1ccc(C(CC)(CC)NC(=O)c2cnn3c2NC(c2ccccc2)CC3(C)C)cc1 (stereo not shown) [Example 706, N-(1-ethyl-1-(4-propylphenyl)propyl)-7,7-dimethyl-5-phenyl-4,5,6,7-tetrahydropyrazolo[1,5-a]pyrimidine-3-carboxamide]
160 to 162 °C	CCC(CC)(NC(=O)c1c(C)nn2c1NC(c1ccccc1F)CC2(C)C)c1ccccc1 (stereo not shown) (as salt: HCl) [Example 840, N-(1-ethyl-1-phenylpropyl)-5-(2-fluorophenyl)-2,7,7-trimethyl-4,5,6,7-tetrahydropyrazolo[1,5-a]pyrimidine-3-carboxamide]
162 to 164 °C	CCC1(CC)C[C@@H](O)CN1C(=O)c1c(C)nn2c1N[C@@H](c1ccccc1)CC2(C)C [Example 1097, (3R)-5,5-diethyl-1-(((5R)-2,7,7-trimethyl-5-phenyl-4,5,6,7-tetrahydropyrazolo[1,5-a]pyrimidin-3-yl)carbonyl)-3-pyrrolidinol]
164 to 165 °C	CC1(C)CC(c2ccccc2)Nc2c(C(=O)N(Cc3ccc(C(F)(F)F)cc3)Cc3ccc(C(F)(F)F)cc3)cnn21 (stereo not shown) [Example 409, 7,7-dimethyl-5-phenyl-N,N-bis(4-(trifluoromethyl)benzyl)-4,5,6,7-tetrahydropyrazolo[1,5-a]pyrimidine-3-carboxamide]
173 to 174 °C	CCC(CC)(NC(=O)c1c(C)nn2c1NC(c1ccccc1Cl)CC2(C)C)c1ccc(C)cc1 (stereo not shown) (as salt: HCl) [Example 968, 5-(2-chlorophenyl)-N-(1-ethyl-1-(4-methylphenyl)propyl)-2,7,7-trimethyl-4,5,6,7-tetrahydropyrazolo[1,5-a]pyrimidine-3-carboxamide]
205 to 207 °C	CCC(CC)(NC(=O)c1cnn2c1NC(c1ccccc1)CC21CCCC1)c1ccc(C(F)(F)F)cc1 (stereo not shown) [Example 191, N-(1-ethyl-1-(4-(trifluoromethyl)phenyl)propyl)-5′-phenyl-5′,6′-dihydro-4′H-spiro[cyclopentane-1,7′-pyrazolo[1,5-a]pyrimidine]-3′-carboxamide]
194 to 195 °C	CCC(CC)(NC(=O)c1c(C)nn2c1N[C@@H](c1ccccc1)CC2(C)C)c1cc(C)n(-c2ccccc2)n1 (as salt: HCl) [Example 1062, (5R)-N-(1-ethyl-1-(5-methyl-1-phenyl-1H-pyrazol-3-yl)propyl)-2,7,7-trimethyl-5-phenyl-4,5,6,7-tetrahydropyrazolo[1,5-a]pyrimidine-3-carboxamide]
259 to 261 °C	O=C(NC12CC3CC(CC(C3)C1)C2)c1cnn2c1NC(c1ccccc1)CC21CCCC1 (stereo not shown) [Example 183, N-(1-adamantyl)-5′-phenyl-5′,6′-dihydro-4′H-spiro[cyclopentane-1,7′-pyrazolo[1,5-a]pyrimidine]-3′-carboxamide]
206 to 207 °C	CC1(C)CC(c2ccccc2)Nc2c(C(=O)N(Cc3ccccc3)Cc3ccccc3)cnn21 (stereo not shown) [Example 408, N,N-dibenzyl-7,7-dimethyl-5-phenyl-4,5,6,7-tetrahydropyrazolo[1,5-a]pyrimidine-3-carboxamide]
162 to 163 °C	Cc1nn2c(c1C(=O)NC13CC4CC(CC(C4)C1)C3)NC(c1ccccc1)CC2C(F)(F)F (stereo not shown) [Example 42]
125 to 126 °C	CCOC(=O)c1ccc(C(CC)(CC)NC(=O)c2c(C)nn3c2N[C@@H](c2ccccc2)CC3(C)C)cc1 (as salt: HCl) [Example 1074, (5R)-ethyl 4-(1-ethyl-1-(((2,7,7-trimethyl-5-phenyl-4,5,6,7-tetrahydropyrazolo[1,5-a]pyrimidin-3-yl)carbonyl)amino)propyl) benzoate]
200 to 202 °C	CCC(CC)(NC(=O)c1c(C)nn2c1NC(c1ccccc1)CC2(C)C)c1ccc(C(C)=O)cc1 (stereo not shown) [Example 977, N-(1-(4-acetylphenyl)-1-ethylpropyl)-2,7,7-trimethyl-5-phenyl-4,5,6,7-tetrahydropyrazolo[1,5-a]pyrimidine-3-carboxamide]
185 to 186 °C	CCC(CC)(NC(=O)c1cnn2c1NC(c1ccccc1)CC2(C)C)c1ccc(COC(C)=O)cc1 (stereo not shown) [Example 737, 4-(1-(((7,7-dimethyl-5-phenyl-4,5,6,7-tetrahydropyrazolo[1,5-a]pyrimidin-3-yl)carbonyl)amino)-1-ethylpropyl)benzyl acetate]
173 to 174 °C	CCC(CC)(NC(=O)c1c(C)nn2c1N[C@H](c1ccccc1Cl)CC2(C)C)c1ccc(C)cc1 (as salt: HCl) [Example 1090, (5S)-5-(2-chlorophenyl)-N-(1-ethyl-1-(4-methylphenyl)propyl)-2,7,7-trimethyl-4,5,6,7-tetrahydropyrazolo[1,5-a]pyrimidine-3-carboxamide]
271 to 272 °C	CC(NC(=O)c1cnn2c1N[C@H](c1ccccc1)C[C@@H]2C(F)(F)F)C(=O)c1ccccc1 (stereo in doubt) [Example 290, N-(1-methyl-2-oxo-2-phenylethyl)-5-phenyl-7-(trifluoromethyl)-4,5,6,7-tetrahydropyrazolo[1,5-a]pyrimidine-3-carboxamide]
